What follows are compounds tested against T1, NOS3 (Homo sapiens, UniProt P29474) (assay: Steady state NOS3 activity imaging at plasma membrane and TGN with NOckout probes). Conditions: T-47D cells.
T1 construct: endogenous, basal NOS3 activity was estimated at each of these sub-cellular locations in T-47D cells; endogenous in cells; host or cells: T-47D cells
Type: cell-based
Experimental: Image acquisition. T-47D cells were maintained as mentioned above in the cell culture section. Cells were washed twice with Hank's balanced salt solution (HBSS) before incubating them with 500 nM NOckout^TGN for 30 min or 500 nM NOckout^PM for 10 min at 37° C. followed by 3 washes with HBSS solution to remove any unloaded sensors. For steady state imaging (FIG. 1), cells were treated with indicated agonists or antagonists for 1 hr in complete RPMI-1640 medium. Care was taken not to exceed the final concentration of DMSO>1% at any time of the experiment. Additionally, 1% DMSO was used as a negative control in untreated (Basal) cells. […] The cells are then washed and imaged (FIG. 1f).
For simultaneous imaging cells were treated with 500 nM NOckout^TGN for 30 min where last 10 min cells were co-incubated with 500 nM NOckout^PM. In order to achieve lowest signal (PTIO, FIG. 1e-f) or to achieve bleaching profile (PTIO, FIG. 3e) cells were pre-treated with 500 μM PTIO for 15 minutes. Images were captured on a Laser scanning confocal Leica SP8 microscope using 63×, 1.4UV NA objective. Desired excitation and emission wavelengths was achieved using white light laser along with notch filters and acousto-optical tunable filters. A488, DAR and A647 were imaged using the following settings—Alexa488 (λex=488 nm, λem=500 nm to 540 nm), DAR (λex=554 nm, λem=565 nm to 610 nm) and Alexa647 (λex=647 nm, λem=665 nm to 710 nm).
Image analysis was performed using Fiji (Schindelin, J. et al. Fiji: an open-source platform for biological-image analysis. Nat Methods 9, 676-682 (2012)). Auto-fluorescence was subtracted from images for ratiometric analysis. For representation, images were further processed by smooth and despeckle functions. In order to present G/B or G/R images, a mask for each image was constructed using Otsu thresholding method, and mask-multiplied images were used for division. The ROI plugin in Fiji was used to select either TGN (Alexa647 channel) or PM (Alexa488 channel) and these ROIs were recalled in DAR channel to measure intensity in all three channels.
Next, endogenous, basal NOS3 activity was estimated at each of these sub-cellular locations in T-47D cells without explicitly activating NOS3. To do this, the ratiometric NOckout^PM response, i.e. the G/B ratio, was first measured under conditions where cells were depleted of NO using the NO scavenger 2-phenyl-4,4,5,5-tetramethylimidazoline-1-oxyl 3-oxide (PTIO, 300 μM) (Goldstein, S., Russo, A. & Samuni, A. Reactions of PTIO and carboxy-PTIO with *NO, *NO2, and O2−*. J Biol. Chem. 278, 50949-50955 (2003)). […] These two extreme cases provide the minimum and maximum G/B signals afforded by NOckout^PM in the cell (FIG. 1e-f). The G/B values under any subsequent condition are normalized to the maximum G/B signal. […]

| Compound | G/B and G/R values of NOckout probes (NOS3 activity) |
| --- | --- |
| Nc1ncnc2c1ncn2[C@@H]1O[C@H](COP(=O)(O)OP(=O)(O)OP(=O)(O)O)[C@@H](O)[C@H]1O [ATP] | significantly higher G/B and G/R ratios |
| COC(=O)[C@@H](N)CCCNC(=N)N[N+](=O)[O-] [L-NAME, L-N^G-Nitroarginine methyl ester] | reflected those of PTIO-treated cells |
| C[C@]12CC[C@@H]3c4ccc(O)cc4CC[C@H]3[C@@H]1CC[C@@H]2O [E2, 17 β-Estradiol] | selectively activated NOS3 only at the plasma membrane |

These compounds were tested on S-nitrosylation at the Golgi (assay: Anti-S-nitrosocysteine immunostaining of T-47D cells). Conditions: not given.
Type: cell-based
Experimental: (§1) Immunofluorescence staining. Cells were cultured on a glass bottom 3.5 cm imaging dish to reach 60% confluency. […] Treated cells were then washed three times with 1× PBS (pH 7.4) and fixed using, 4% paraformaldehyde at room temperature (RT, 15 min). Subsequently, cells were permeabilized using 0.25% triton X-100 followed by blocking using 3% BSA in 1× PBS. Cells were then incubated with indicated primary antibodies—mouse monoclonal anti-eNOS antibody (SantaCruz Cat #sc-376751), Polyclonal Anti-S-nitrosocysteine antibody (Abeam Cat #ab94930 or Abeam Cat #ab50185), Rabbit polyclonal Anti-Giantin antibody (Abeam Cat #ab24586) or Mouse monoclonal Anti-GM130 antibody (BD Biosciences Cat #610822) in blocking buffer (3% BSA in 1× 4 PBS) for 1 hour at RT. Cells were then washed for 5 min with 1× PBS (3×). Respective secondary antibodies conjugated with either Alexafluor 488 or Alexafluor 647 were added to the cells and incubated for 1 hr at RT. Cells were washed again to remove excess secondary antibody using 1× PBS for 5 min (3×). Hoechst 33342 (5 μM) was added 10 min prior to imaging to stain nuclear DNA. Cells were then imaged on a Leica SP8 laser scanning confocal microscope using excitation wavelengths 405 nm (Hoechst), 488 nm (AlexaFluor 488) and 647 nm (AlexaFluor 647). Images were processed using Fiji and maximum z-projection of 2-3 z-planes are used in representative images.
In order to address the significance of the […] population of NOS3 at the TGN, T-47D cells were immunostained using an antibody specific to S-nitrosocysteine.
Similar observations were made in MCF-7 cells upon NO depletion (FIG. 23). These studies reveal that the Golgi is a cellular hot-spot for 5-nitrosylation of proteins by NOS3, where it is essential for the maintenance of Golgi architecture in breast cancer cells. […] In addition to Golgi fragmentation, NO scavenging also hampered cell growth by inducing cell sensescence (FIG. 24).

| Compound | S-nitrosylation at the Golgi |
| --- | --- |
| COC(=O)[C@@H](N)CCCNC(=N)N[N+](=O)[O-] [L-NAME, L-N^G-Nitroarginine methyl ester] | dramatically reduced |
| CC1(C)N([O])C(c2ccccc2)=[N+]([O-])C1(C)C [PTIO, 2-phenyl-4,4,5,5-tetramethylimidazoline-1-oxyl 3-oxide] | greatly diminished |

What follows are compounds tested against T2, murine TLR-9 (Mus musculus, UniProt Q9EQU3) (assay: Endosomal NO in primary mouse microglia with NOckout^mCpG). Conditions: primary microglial cells, NOckout^mCpG 500 nM 120 min, without or with 200 nM BAF.
T2 construct: endogenous in cells; host or cells: primary microglia from C57BL/6 mice
T2 sequence (Q9EQU3 26-1032): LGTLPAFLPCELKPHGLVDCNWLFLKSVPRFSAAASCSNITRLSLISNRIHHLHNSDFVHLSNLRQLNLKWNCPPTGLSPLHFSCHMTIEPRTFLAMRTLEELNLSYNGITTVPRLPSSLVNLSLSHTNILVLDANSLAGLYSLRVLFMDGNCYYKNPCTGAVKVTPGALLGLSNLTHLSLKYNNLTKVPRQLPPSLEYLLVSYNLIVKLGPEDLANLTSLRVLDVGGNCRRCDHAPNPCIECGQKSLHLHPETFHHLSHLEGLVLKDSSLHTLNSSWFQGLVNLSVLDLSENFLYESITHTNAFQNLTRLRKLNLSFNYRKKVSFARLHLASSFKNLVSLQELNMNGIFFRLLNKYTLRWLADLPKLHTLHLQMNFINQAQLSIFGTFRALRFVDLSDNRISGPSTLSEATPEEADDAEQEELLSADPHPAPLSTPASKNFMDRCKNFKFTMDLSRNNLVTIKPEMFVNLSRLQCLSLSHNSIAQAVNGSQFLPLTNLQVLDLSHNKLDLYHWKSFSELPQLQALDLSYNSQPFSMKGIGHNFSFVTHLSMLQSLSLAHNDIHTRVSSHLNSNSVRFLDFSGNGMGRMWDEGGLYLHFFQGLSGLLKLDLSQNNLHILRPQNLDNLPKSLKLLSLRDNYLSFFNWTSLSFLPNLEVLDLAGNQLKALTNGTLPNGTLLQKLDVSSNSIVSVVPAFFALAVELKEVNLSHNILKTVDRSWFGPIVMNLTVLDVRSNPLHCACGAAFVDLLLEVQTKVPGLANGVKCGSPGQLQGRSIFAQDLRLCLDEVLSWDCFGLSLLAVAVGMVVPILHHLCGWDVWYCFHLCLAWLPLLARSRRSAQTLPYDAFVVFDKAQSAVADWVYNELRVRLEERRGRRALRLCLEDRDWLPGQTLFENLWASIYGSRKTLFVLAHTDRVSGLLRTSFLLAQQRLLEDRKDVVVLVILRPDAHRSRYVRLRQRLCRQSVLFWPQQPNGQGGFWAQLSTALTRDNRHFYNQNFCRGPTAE
Type: cell-based
From the text: Image analysis: A MATLAB based program called Findosome was used to calculate the (G/R) values of individual endosomes from the acquired images. Maximum Z-projected images created using Fiji (NIH) were fed to Findosome to pick endosomal compartments as ROI corresponding to individual endosomes based on the A647 channel intensity. For each ROI, the program calculates fluorescence intensities both in the normalizing channel (A647, R) as well as in the DAR (G) channel. The results were exported as an excel file. From the results, (G/R) value for individual endosomes can be calculated. Phagosomal (G/R) values from the zebrafish microglia are calculated using Fiji software. Images were imported to Fiji and maximum Z-projected images were created. ROI were manually drawn around clearly identifiable phagosomes using the normalizing channel A647 intensity. Fluorescence intensities in A647 and DAR channels were calculated. G/R values are either represented as heat map images using Fiji or as bar graph using Origin software. Intracellular measurements of (G/R) values was performed in GFP colocalized microglia. For (G/R) ratio quantification experiments, only those vesicles that are present in both green (G) and red (R) channels were considered. […]

| Compound | endosomes with G/R value≥0.45 [%] |
| --- | --- |
| CO/C1=C\C(C)=C\[C@@H](C)[C@@H](O)[C@@H](C)C/C(C)=C/C=C/[C@H](OC)[C@@H]([C@@H](C)[C@@H](O)[C@H](C)[C@@]2(O)C[C@@H](O)[C@H](C)[C@@H](C(C)C)O2)OC1=O [BAF] | 50 |

The compounds below were run on T-47D cells (assay: Golgi fragmentation (Giantin/GM130 immunofluorescence)). Conditions: not given.
Type: cell-based
Experimental: as §1
Golgi fragmentation was quantified with immunofluorescence images of Golgi structural protein Giantin. Merge images of Hoechst and Giantin allowed identification of cell numbers and enumeration of Golgi fragments per cell (≤3 Golgi fragments per cell was considered intact Golgi) (Lee, J. E. et al. Dependence of Golgi apparatus integrity on nitric oxide in vascular cells: implications in pulmonary arterial hypertension. Am. J. Physiol. Heart Circ. Physiol. 300, H1141-58 (2011)). […]
Small molecule inhibitors were then screened to identify the molecular pathway by which NOS3 inhibition induces Golgi fragmentation. This is based on the rationale that inhibiting a protein on this pathway should also block methylene blue-induced Golgi fragmentation. […] A range of small molecule inhibitors against kinases that have previously ascribed roles in Golgi fragmentation were then used. DNA-PK with NU7441 was ruled out (Farber-Katz, S. E. et al. DNA damage triggers Golgi dispersal via DNA-PK and GOLPH3. Cell 156, 413-427 (2014)). Compounds containing an indirubin core have broad specificity for Cyclin dependent kinases (CDKs) and Src kinases. […] CDK1, CDK2 and CDK5 were ruled out, using (R)-Roscovitine (Rosco).

| Compound | Golgi fragmentation by treatment alone | effect on methylene blue (MB)-induced Golgi fragmentation | reduction of MB-induced Golgi fragmentation [%] |
| --- | --- | --- | --- |
| CN(C)c1ccc2nc3ccc(=[N+](C)C)cc-3sc2c1 [Methylene Blue] | fragmented morphology |  |  |
| CC1(C)CC(O)CC(C)(C)N1[O] [TEMPOL] | none of these treatments fragmented the Golgi |  |  |
| C/C1=C/C(=O)O[C@@H]2C[C@@H](CC[C@H](C)/C=C\CC1)O[C@@](O)([C@@H]1CSC(=O)N1)C2 [Latrunculin B] |  | completely blocked |  |
| CC[C@H](CO)Nc1nc(NCc2ccccc2)c2ncn(C(C)C)c2n1 [(R)-Roscovitine] |  | ruled out |  |
| O=C1Nc2ccccc2/C1=C1/Nc2ccccc2/C1=N\OCC(O)CO (stereo not drawn) [indirubin-e804] |  | completely blocked |  |
| COC(=O)[C@@H](N)CCCNC(=N)N[N+](=O)[O-] [L-NAME, L-N^G-Nitroarginine methyl ester] | underwent fragmentation |  |  |
| C[C@@H](N)[C@H]1CC[C@H](C(=O)Nc2ccncc2)CC1 [Y-27632] |  | not mediated by apoptosis |  |
| CC1(C)N([O])C(c2ccccc2)=[N+]([O-])C1(C)C [PTIO, 2-phenyl-4,4,5,5-tetramethylimidazoline-1-oxyl 3-oxide] | fragmented morphology |  |  |
| O=C1Nc2ccccc2/C1=C1/Nc2ccccc2/C1=N\O [indirubin-3′-monoxime] |  | completely blocked |  |
| O=c1cc(N2CCOCC2)oc2c(-c3cccc4c3sc3ccccc34)cccc12 [NU7441] |  | ruled out |  |
| Hemoglobin | fragmented morphology |  |  |
| CN(C)S(=O)(=O)c1ccc2c(c1)/C(=C/c1cc3c([nH]1)CCCC3)C(=O)N2 [SU6656] |  |  | ~50 |
